Assay results as given in US7608627B2, “6-azaindole compound” (Takeda Pharmaceutical Company Limited, priority 2005, dated 2009).
Where a name gives a salt, the structure may show the parent alone.

molecular target: T1, IKKβ (Homo sapiens, UniProt O14920); experiment: Determination of IKKβ inhibitory activity (32P uptake into IκBα substrate); type: biochemical; settings: active IKKβ 10 ng, IκBα substrate protein, [γ-32P]ATP, 30° C. for 60 min; 50% inhibition of 32P uptake by the acid insoluble fraction
T1 construct: made in house; host or cells: Sf-21 insect cells, recombinant baculovirus BAC-IKKB (pFASTBAC1)
T1 sequence (O14920 1-756): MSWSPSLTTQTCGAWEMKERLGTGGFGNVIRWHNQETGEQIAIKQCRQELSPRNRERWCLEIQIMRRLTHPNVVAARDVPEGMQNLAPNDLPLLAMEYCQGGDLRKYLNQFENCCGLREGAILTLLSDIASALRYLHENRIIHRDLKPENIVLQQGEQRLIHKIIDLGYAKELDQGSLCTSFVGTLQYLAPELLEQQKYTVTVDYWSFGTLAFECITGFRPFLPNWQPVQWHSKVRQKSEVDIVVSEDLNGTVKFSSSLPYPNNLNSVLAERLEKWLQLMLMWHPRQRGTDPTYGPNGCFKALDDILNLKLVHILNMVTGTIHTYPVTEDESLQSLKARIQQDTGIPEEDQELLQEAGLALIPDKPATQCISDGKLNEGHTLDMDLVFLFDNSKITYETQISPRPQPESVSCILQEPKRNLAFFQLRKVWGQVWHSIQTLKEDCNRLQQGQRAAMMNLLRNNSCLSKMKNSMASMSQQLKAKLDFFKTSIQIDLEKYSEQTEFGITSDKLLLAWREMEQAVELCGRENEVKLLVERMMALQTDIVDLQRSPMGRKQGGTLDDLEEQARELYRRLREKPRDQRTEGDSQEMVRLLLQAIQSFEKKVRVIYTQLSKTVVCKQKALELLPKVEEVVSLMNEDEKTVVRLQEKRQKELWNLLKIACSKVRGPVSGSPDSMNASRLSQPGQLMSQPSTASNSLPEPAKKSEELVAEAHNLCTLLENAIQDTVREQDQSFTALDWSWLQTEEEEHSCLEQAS
Protocol: To a reaction solution (37.5 μl, 25 mM HEPES (pH 7.5), 10 mM magnesium acetate) containing active IKKβ (10 ng) obtained in Reference Example 3A and 2.5 μg of IκBα substrate protein solution was added a test compound (2.5 μl) dissolved in DMSO, and the mixture was incubated at 30° C. for 5 min. To the obtained mixture was added 10 μl of ATP solution (2.5 μM ATP, 0.01 μCi [γ-^32P]ATP) and the mixture was allowed to react at 30° C. for 60 min. Then 20% TCA solution (50 μl) was added thereto to stop the reaction. The reaction solution was left standing at 4° C. for 20 min. and acid insoluble fraction was transferred to a GF/C filter (PACKARD JAPAN KK) using a cell harvester (PACKARD JAPAN KK) and washed with 250 mM phosphoric acid solution. The plate after washing was dried at 45° C. for 60 min., 40 μl of MicroSinti 0 (PACKARD JAPAN KK) was added and the radioactivity was determined using TopCount (PACKARD JAPAN KK). The concentration (IC50) of the test compound necessary for 50% inhibition of the amount of ^32P uptake by the acid insoluble fraction was calculated using PRISM 3.0 (GraphPad Software, Inc.).

IC50 | Compound
1700 nM | c1ccc(C(=NOC2CCNC2)c2cc3ccncc3[nH]2)cc1 (stereo not shown) [Example 91, Phenyl (1H-pyrrolo[2,3-c]pyridin-2-yl)methanone O-pyrrolidin-3-yloxime dihydrochloride]

system: not given; experiment: not given; settings: not given

melting point | Compound
190 to 194 °C | Cc1ccc(/C(=N/OCCN)c2cc3ccncc3[nH]2)cc1 (single isomer, unassigned) (as salt: trifluoroacetate) [Example 119, (4-Methylphenyl)(1H-pyrrolo[2,3-c]pyridin-2-yl)methanone O-(2-aminoethyl)oxime bis(hydrogen trifluoroacetate)]
182 to 192 °C | O=C(NC(c1ccccc1)c1cc2ccncc2[nH]1)c1ccncc1 (stereo not shown) [Example 49, N-[Phenyl (1H-pyrrolo[2,3-c]pyridin-2-yl)methyl]isonicotinamide]
102 to 110 °C | O=C(NC(c1ccccc1)c1cc2ccncc2[nH]1)c1ccccn1 (stereo not shown) [Example 50, N-[Phenyl (1H-pyrrolo[2,3-c]pyridin-2-yl)methyl]-2-pyridinecarboxamide]
84 to 88 °C | CC(C)(C)OC(=O)NCCO/N=C(\c1ccccc1)c1cc2ccncc2[nH]1 [Example 60, tert-Butyl 2-[[[phenyl(1H-pyrrolo[2,3-c]pyridin-2-yl)methylene]amino]oxy]ethylcarbamate]
274 to 277 °C (dec.) | O=C(c1ccc(Cl)c(Cl)c1)c1cc2ccncc2[nH]1 [Example 127, (3,4-Dichlorophenyl)(1H-pyrrolo[2,3-c]pyridin-2-yl)methanone]
206 to 208 °C | O=C(NC(c1ccccc1)c1cc2ccncc2[nH]1)c1ccccc1 (stereo not shown) [Example 51, N-[Phenyl(1H-pyrrolo[2,3-c]pyridin-2-yl)methyl]benzamide]
264 to 268 °C (dec.) | Cc1ccc(C(=O)c2cc3ccncc3[nH]2)cc1 [Example 100, (4-Methylphenyl)(1H-pyrrolo[2,3-c]pyridin-2-yl)methanone]
182 to 189 °C (dec.) | CC(C)CC(O)c1cc2ccncc2[nH]1 (stereo not shown) [Example 79, 3-Methyl-1-(1H-pyrrolo[2,3-c]pyridin-2-yl)-1-butanol]
240 to 250 °C | NC(c1ccccc1)c1cc2ccncc2[nH]1 (stereo not shown) (as salt: hydrochloride) [Example 40, 1-Phenyl-1-(1H-pyrrolo[2,3-c]pyridin-2-yl)methylamine dihydrochloride]
215 to 218 °C | CC(C)CC(=O)c1cc2ccncc2[nH]1 [Example 81, 3-Methyl-1-(1H-pyrrolo[2,3-c]pyridin-2-yl)-1-butanone]
289 to 292 °C | CC(N)c1cc2ccncc2[nH]1 (stereo not shown) (as salt: hydrochloride) [Example 75, 1-(1H-Pyrrolo[2,3-c]pyridin-2-yl)ethylamine dihydrochloride]
68 to 73 °C | O=C(O)CO/N=C(\c1ccccc1)c1cc2ccncc2[nH]1 [Example 66, [[[Phenyl(1H-pyrrolo[2,3-c]pyridin-2-yl)methylene]amino]oxy]acetic acid]
162 to 166 °C | OC(CCc1ccccc1)c1cc2ccncc2[nH]1 (stereo not shown) [Example 83, 3-Phenyl-1-(1H-pyrrolo[2,3-c]pyridin-2-yl)propan-1-ol]
47 to 52 °C | CC(C)(C)OC(=O)CO/N=C(\c1ccccc1)c1cc2ccncc2[nH]1 [Example 58, tert-Butyl[[[phenyl(1H-pyrrolo[2,3-c]pyridin-2-yl)methylene]amino]oxy]acetate]
264 to 266 °C (dec.) | OC(c1ccc(Cl)c(Cl)c1)c1cc2ccncc2[nH]1 (stereo not shown) [Example 113, (3,4-Dichlorophenyl)(1H-pyrrolo[2,3-c]pyridin-2-yl)methanol]
176 to 184 °C (dec.) | Cl.NCCO/N=C(\c1ccccc1)c1cc2ccncc2[nH]1 [Example 67]
246 to 250 °C | O=C(CCc1ccccc1)c1cc2ccncc2[nH]1 [Example 89, 3-Phenyl-1-(1H-pyrrolo[2,3-c]pyridin-2-yl)propan-1-one]
122 to 124 °C | O=C(c1ccccc1)c1cc2ccnc(N(Cc3ccccc3)Cc3ccccc3)c2[nH]1 [Example 47, [7-(Dibenzylamino)-1H-pyrrolo[2,3-c]pyridin-2-yl](phenyl)methanone]
202 to 203 °C | CON=C(c1ccccc1)c1cc2ccncc2[nH]1.Cl [Example 120]
78 to 82 °C | Cc1ccc(C(O)c2cc3ccncc3[nH]2)cc1 (stereo not shown) [Example 98, (4-Methylphenyl)(1H-pyrrolo[2,3-c]pyridin-2-yl)methanol]

The remaining lines, values behind:

Compound | melting point
O=C(NCc1ccncc1)c1cc2ccnc(Cl)c2[nH]1 [Example 6, 7-Chloro-N-(4-pyridinylmethyl)-1H-pyrrolo[2,3-c]pyridine-2-carboxamide] | > 340 °C
O=C(c1cc2ccncc2[nH]1)N1CCCC1 [Example 33, 2-(1-Pyrrolidinylcarbonyl)-1H-pyrrolo[2,3-c]pyridine] | 260 to 275 °C (dec.)
CC(=O)N1CCN(C(=O)c2cc3ccnc(Cl)c3[nH]2)CC1 [Example 12, 2-[(4-Acetyl-1-piperazinyl)carbonyl]-7-chloro-1H-pyrrolo[2,3-c]pyridine] | 179 to 184 °C
Cl.Clc1nccc2cc(CNC3CCCC3)[nH]c12 | 241 to 244 °C
CNCc1cc2ccnc(Cl)c2[nH]1.Cl | 264 to 266 °C (dec.)
O=C(c1ccsc1)c1cc2ccncc2[nH]1 [Example 32, (1H-Pyrrolo[2,3-c]pyridin-2-yl)(thien-3-yl)methanone] | 178 to 181 °C (dec.)
c1ccc(C(=NOC2CCCNC2)c2cc3ccncc3[nH]2)cc1 (single isomer, unassigned) (as salt: hydrochloride) | 240 to 245 °C (dec.)
O=C(NCc1ccccn1)c1cc2ccnc(Cl)c2[nH]1 [Example 4, 7-Chloro-N-(2-pyridinylmethyl)-1H-pyrrolo[2,3-c]pyridine-2-carboxamide] | 177 to 183 °C
O=C(NCc1ccccc1)c1cc2ccnc(Cl)c2[nH]1 [Example 2, N-Benzyl-7-chloro-1H-pyrrolo[2,3-c]pyridine-2-carboxamide] | 217 to 220 °C
O=C(c1cc2ccnc(Cl)c2[nH]1)N1CCCC1 [Example 13, 7-Chloro-2-(1-pyrrolidinylcarbonyl)-1H-pyrrolo[2,3-c]pyridine] | 152 to 154 °C
O=C(c1ccccc1)c1cc2ccnc(Cl)c2[nH]1 [Example 29, (7-Chloro-1H-pyrrolo[2,3-c]pyridin-2-yl)(phenyl)methanone] | 152 to 153 °C
Cl.Clc1nccc2cc(CN3CCCCC3)[nH]c12 | 240 to 244 °C
Cl.Clc1nccc2cc(CNC3CCN(Cc4ccccc4)CC3)[nH]c12 | 295 to 310 °C (dec.)
O=C(Nc1ccccn1)c1cc2ccnc(Cl)c2[nH]1 [Example 20, 7-Chloro-N-(2-pyridinyl)-1H-pyrrolo[2,3-c]pyridine-2-carboxamide] | 94 to 102 °C
NCc1cc2ccncc2[nH]1 (as salt: hydrochloride) | 302 to 303 °C
Cl.c1ccc(CON=C(c2ccccc2)c2cc3ccncc3[nH]2)cc1 | 153 to 155 °C
CC(C)C/C(=N\NC(=N)N)c1cc2ccncc2[nH]1 (as salt: hydrochloride) | 232 to 236 °C
CC(C)/C(=N\NC(=N)N)c1cc2ccncc2[nH]1 (as salt: hydrochloride) | 242 to 245 °C
O/N=C(\c1ccccc1)c1cc2ccncc2[nH]1 [Example 39, Phenyl(1H-pyrrolo[2,3-c]pyridin-2-yl)methanone oxime] | 132 to 142 °C
